From patent publication US20070053866A1, “IN-CAN AND DRY COATING ANTIMICROBIAL COMPOSITIONS HAVING HYDROXY ANALOGS OF METHIONINE AND DERIVATIVES” (NOVUS INTERNATIONAL INC., priority 2005, published 2007)

Experiments:
[1] = system: Penicillium and Aspergilus sp.; assay: Dry-film alkyd paint mold and mildew resistance in environmental chamber (ASTM D 3273-94, ASTM D 3274-95); type: cell-based; conditions: scale of 1 to 10, 10 being totally free of growth; for ASTM Rating: Three months of continuous alkyd paint testing in the environmental chamber; for ASTM RATING Mean: One month in the environmental chamber, added at 1% to alkyd paint
Description: Accelerated testing of biocides in paints is conducted using environmental chambers maintained at constant high humidity (85-88% relative humidity) and temperature (30-33° C.). The chamber was primed with spores of Penicillium and Aspergilus sp. to accelerate the formation of fungal organisms. Wood panels are coated with the experimental paints and placed inside the chamber for a period of 4-12 weeks. The relative resistance of the paint to the mold and mildew inside the chamber was evaluated subjectively from a scale of 1 to 10, with 10 being totally free of growth. This test is described in more detail in ASTM D 3273-94 and ASTM D 3274-95.
Paint preservatives listed in table 5 below were added at 1% to alkyd paint formulations. HMTBA-Zn is a zinc metal chelate as described above; HMTBA-Cu is a copper metal chelate as described above; HMTBA-Mn is a manganese metal chelate as described above; BIOX-S is 6-ethoxy-1,2-dihydro-2,2,4-trimethylquinoline; BIOX-A is 88 wt. % HMTBA; BIOX-ASL contains 35 wt. % of 2-hydroxy-4-methylthio butanoic acid (88%), 45 wt. % of formic acid, 10 wt. % phosphoric acid and 10 wt. % lactic acid; and BIOX-EZ/7030 contains 70 wt. % of 6-ethoxy-1,2-dihydro-2,2,4-trimethylquinoline and 30 wt. % of HMTBA-Zn metal chelate. Troy663 is a positive control.

[2] = system: Pseudomonas aeruginosa ATCC 10145 and Enterobacter aerogenes ATCC 13048; assay: In-can paint preservation: bacterial resistance rating of inoculated water borne paint; type: cell-based; design: key: 0: no bacterial recovery; trace of contamination (1 to 9 colonies); 2: light contamination (10 to 99 colonies); 3: moderate contamination (>100 distinct colonies); 4: heavy contamination (continuous smear of growth)
Description: Paint preservatives listed in the tables below were added at the listed concentrations to water borne paint formulations. BIOX-ASL contains 35 wt. % of 2-hydroxy-4-methylthio butanoic acid (88%), 45 wt. % of formic acid, 10 wt. % phosphoric acid and 10 wt. % lactic acid; BIOX-AWD contains 40 wt. % of 2-hydroxy-4-methylthio butanoic acid, 40 wt. % of formic acid and 20 wt. % propionic acid; BIOX-ASDA contains 36.4 wt. % of calcium bis(2-hydroxy-4-methylthiobuanoate), 41.9 wt. % of fumaric acid, 20 wt. % of benzoic acid, 0.9 wt. % flow aid and 0.73 wt. % other additives; HTA and BIOBAN BP30 are commercially available; BIOX-Z is a HMTBA-Zn metal chelate, and BIOX-C is a HMTBA-Cu metal chelate.
The paints were inoculated with Pseudomonas aeruginosaATCC 10145 and Enterobacter aerogenes ATCC 13048 at a level of 0.1% inoculum, and paints were then sampled during the next seven days to determine the number of bacterial colonies surviving in the paint. The efficacy of the added antimicrobial agents were given a numeric rating based on the following system: (0) for no bacterial recovery, (1) for trace of contamination (1 to 9 colonies), (2) for light contamination (10 to 99 colonies), (3) for moderate contamination (>100 distinct colonies) and (4) for heavy contamination (continuous smear of growth).
The paints were then inoculated at a level of 1.0% inoculum and were again sampled during the next seven days to determine the number of bacterial colonies surviving in the paint. These ratings were also plotted versus day after inoculation for each concentration of BIOX-ASL, BIOX-AWD, BIOX-ASDA, and BIOX-C, and are presented in FIGS. 1-4. The minimum inhibitory concentration (MIC) of each BIOX biocide was much lower after one week than those of commercially available products, as shown in FIG. 5.

[3] = Table 3, Week 1: 0.1% Inoculum, sample at 1.0%
[4] = Table 1, week 1, 0.1% inoculum, 5 ppm in water borne paint
[5] = Table 1, week 1, 0.1% inoculum, 25 ppm in water borne paint
[6] = Table 2, week 2, 1.0% inoculum, 5 ppm in water borne paint
[7] = Table 2, week 2, 1.0% inoculum, 25 ppm in water borne paint
[8] = Table 3, Week 2: 1.0% Inoculum, sample at 1.0%
[9] = Table 4, Week 1: 0.1% Inoculum, sample at 1.0% (Bioban BP30: concentration not given)
[10] = Table 4, Week 2: 1.0% Inoculum, sample at 1.0%

## [Cu+2].[O-]n1ccccc1=S.[O-]n1ccccc1=S [COPPER OMADINE, reference compound]
[1]
  ASTM Rating: 9.2 ± 0.4

## CSCCC(O)C(=O)O (stereo not drawn) [BIOX-A, 2-hydroxy-4(methylthio)butanoic acid]
[1]
  ASTM RATING Mean: 9.2

## CSCCC(O)C(=O)[O-].CSCCC(O)C(=O)[O-].[Mn+2] (stereo not drawn) [HMTBA-Mn]
[1]
  ASTM RATING Mean: 7.8

## C1N2CN3CN1CN(C2)C3 [HTA, reference compound]
[2]; [3]
  Bacterial Resistance Rating, Day 1: 4
  Bacterial Resistance Rating, Day 2: 4
  Bacterial Resistance Rating, Day 5: 4
  Bacterial Resistance Rating, Day 7: 4
  Bacterial Resistance Rating, Initial: 4

## CSCCC(O)C(=O)[O-].CSCCC(O)C(=O)[O-].[Cu+2] (stereo not drawn) [BIOX-C, copper 2-hydroxy-4-methylthiobutanoate chelate]
[1]
  ASTM RATING Mean: 9.3
  ASTM Rating: 9.0 ± 0.6
[2]; [4]
  Bacteria Resistance Rating, Before Inoculation: 0
  Bacteria Resistance Rating, Day 1: 0
  Bacteria Resistance Rating, Day 2: 0
  Bacteria Resistance Rating, Day 5: 0
  Bacteria Resistance Rating, Day 7: 0
  Bacteria Resistance Rating, Initial Inoculation: 4
[2]; [5]
  Bacteria Resistance Rating, Before Inoculation: 0
  Bacteria Resistance Rating, Day 1: 0
  Bacteria Resistance Rating, Day 2: 0
  Bacteria Resistance Rating, Day 5: 0
  Bacteria Resistance Rating, Day 7: 0
  Bacteria Resistance Rating, Initial Inoculation: 4
[2]; [6]
  Bacteria Resistance Rating, Before Inoculation: 0
  Bacteria Resistance Rating, Day 1: 3 (moderate contamination (>100 distinct colonies))
  Bacteria Resistance Rating, Day 2: 1 (trace of contamination (1 to 9 colonies))
  Bacteria Resistance Rating, Day 5: 0
  Bacteria Resistance Rating, Day 7: 0
  Bacteria Resistance Rating, Initial Inoculation: 4
[2]; [7]
  Bacteria Resistance Rating, Before Inoculation: 0
  Bacteria Resistance Rating, Day 1: 3 (moderate contamination (>100 distinct colonies))
  Bacteria Resistance Rating, Day 2: 0
  Bacteria Resistance Rating, Day 5: 0
  Bacteria Resistance Rating, Day 7: 0
  Bacteria Resistance Rating, Initial Inoculation: 4
[2]; [3]
  Bacterial Resistance Rating, Day 1: 2 (light contamination (10 to 99 colonies))
  Bacterial Resistance Rating, Day 2: 0
  Bacterial Resistance Rating, Day 5: 0
  Bacterial Resistance Rating, Day 7: 0
  Bacterial Resistance Rating, Initial: 4
[2]; [8]
  Bacterial Resistance Rating, Day 1: 0
  Bacterial Resistance Rating, Day 2: 0
  Bacterial Resistance Rating, Day 5: 0
  Bacterial Resistance Rating, Day 7: 0
  Bacterial Resistance Rating, Initial: 4
[2]; [9]
  Bacterial Resistance Rating, Day 1: 0
  Bacterial Resistance Rating, Day 2: 0
  Bacterial Resistance Rating, Day 5: 0
  Bacterial Resistance Rating, Day 7: 0
  Bacterial Resistance Rating, Initial: 4
[2]; [10]
  Bacterial Resistance Rating, Day 1: 0
  Bacterial Resistance Rating, Day 2: 0
  Bacterial Resistance Rating, Day 5: 0
  Bacterial Resistance Rating, Initial: 4

## CCOc1ccc2c(c1)C(C)=CC(C)(C)N2 [BIOX-S, 6-ethoxy-1,2-dihydro-2,2,4-trimethylquinoline]
[1]
  ASTM RATING Mean: 9.2

## c1cc[n+]2c(c1)[S][Zn-2]1([O]2)[O][n+]2ccccc2[S]1 [ZINC-OMADINE, reference compound]
[1]
  ASTM Rating: 8.3 ± 0.8

## CSCCC(O)C(=O)[O-].CSCCC(O)C(=O)[O-].[Zn+2] (stereo not drawn) [BIOX-Z]
[1]
  ASTM RATING Mean: 8.7
[2]; [3]
  Bacterial Resistance Rating, Day 1: 0
  Bacterial Resistance Rating, Day 2: 0
  Bacterial Resistance Rating, Day 5: 0
  Bacterial Resistance Rating, Day 7: 0
  Bacterial Resistance Rating, Initial: 4
[2]; [8]
  Bacterial Resistance Rating, Day 1: 1 (trace of contamination (1 to 9 colonies))
  Bacterial Resistance Rating, Day 2: 0
  Bacterial Resistance Rating, Day 5: 0
  Bacterial Resistance Rating, Day 7: 0
  Bacterial Resistance Rating, Initial: 4
[2]; [9]
  Bacterial Resistance Rating, Day 1: 1 (trace of contamination (1 to 9 colonies))
  Bacterial Resistance Rating, Day 2: 0
  Bacterial Resistance Rating, Day 5: 0
  Bacterial Resistance Rating, Day 7: 0
  Bacterial Resistance Rating, Initial: 4
[2]; [10]
  Bacterial Resistance Rating, Day 1: 1 (trace of contamination (1 to 9 colonies))
  Bacterial Resistance Rating, Day 2: 0
  Bacterial Resistance Rating, Day 5: 0
  Bacterial Resistance Rating, Initial: 4
